Assay results taken from US20230218589A1, “COMPOUND FOR PREVENTION OR TREATMENT OF A SKIN CANCER OR SKIN PRECANCER” (UNIQUEST PTY LTD, priority 2020, published 2023).

Legend:
HPV38-E6/E7 SCC cells = assay: Mouse back cSCC tumour model, tacrolimus diet, intra-tumoural injection; details: in vivo
[1] = system: 5117-RE (spindle cell sarcoma) cells; assay: Mouse back 5117-RE tumour model (spindle cell sarcoma, Kaposi sarcoma model); type: in vivo
Experimental: Tacrolimus diet: All customised mice diet was manufactured by Specialty Feeds (Perth, Wash.). Briefly, tacrolimus (MedChemExpress) was mixed with caster sugar and then incorporated into standard mouse diet. […] Food colouring was added to distinguish the drug. During the manufacturing process the pellets were air-dried overnight rather than dried in an oven in order to minimise the amount of heat applied. The final product was sealed in airtight bags and stored at 4° C. protected from light to ensure minimal degradation. Pellet volumes in feed hoppers were kept to a minimum and restocked every 3-4 days for the duration of the experiments.
Compound 1 preparation: Compound 1 (Cmpd 1) was prepared at the beginning of each dosing week as a 1 or 2 mg/mL solution as required in 4% ethanol/0.2% Tween-80/PBS. Compound 1 solution was stored at 4° C. for up to one week.
Mouse back 5117-RE tumour model: Method as per the above section (Mouse back cSCC tumour model), with the following changes; BALBc mice were used, and 5117-RE cells were cultured and passaged for 1 week prior to tumour cell injection in RPMI media (Gibco) supplemented with 10% heat inactivated FBS (Gibco) and 1× Penicillin/Streptomycin/Glutamine (Gibco).
Dissociation of tumour cells for FACS analysis: To release cells from tumours, harvested tissue was cut into small fragments and digested for 60 min at 37° C. in RPMI media containing 2% FBS, 3 mg/mL collagenase D and 5 ug/mL DNase I. Tissues were then gently pressed through a 70 μm cell strainer to create a single-cell suspension. […]
FACS analysis: Stained tumour dissociated cells were then washed twice, resuspended in FACS buffer and Flow cytometric analysis was performed using LSR Fortessa X20 (BD Biosciences) flow cytometers with FACSDiva. software (Becton Dickinson, Sparks, Md., USA). Data were exported and analyzed using FlowJo software (I'reestar Inc., Ashland, Oreg., USA).
Mice were injected sub-cutaneously with 1×10^6 5117-RE (spindle cell sarcoma) cells into the lower back and tumour size was monitored 3 times a week throughout the experiment. […]

[2] = Single dose pharmacokinetics after topical application to mouse ear; type: in vivo; details: single topical 10 μL of 3% solution in propylene glycol to ear, LOQ 3.5 ng/mL
Experimental: The single dose pharmacokinetics of Compound 1 (Cmpd 1) was assessed by topical administration of the compound as a formulation in propylene glycol (3% concentration) applied once per day (QD) to one ear only of C57BL/6 female mice, 8 weeks of age (N=2 or 3 per timepoint; samples taken 1, 6 and 24 h post administration of Compound 1).
Compound Application: Compound 1 (10 μL of a 3% solution in propylene glycol) was applied to mouse ears using a silicone brush. The brush was cleaned with distilled water and ethanol between applications. The vehicle solution was 100% propylene glycol.
Blood processing: Cryovials were prepared containing 10 μL 0.5 M EDTA and labelled appropriately. Cardiac bleed was performed on mice and blood transferred to an Eppendorf tube. Blood (110 μL) was transferred immediately to a cryovial containing EDTA and well mixed to prevent clotting. The cryovial was placed on dry ice and transferred to a −80° C. freezer.
Ear processing: Before taking ears for pharmacokinetics the skin was cleaned with distilled water and dried with cotton balls/swab before doing 2 tape strips (one piece of tape per strip). The whole ear was removed from the mouse. The weight of the whole ear was recorded and placed into an appropriate cryovial which was placed on dry ice then transferred to a −80° C. freezer.
Sample processing: A LC/MS/MS based bioanalytical method was developed for the detection and quantification of Compound 1 in mouse blood and ears. Calibration standards and quality control samples were prepared by adding 2.5 μL of stock solutions of test compound of different concentrations into 25 μL of naïve mouse blood or ear homogenates. Control samples were prepared by spiking 2.5 μL, of water or acetonitrile into 25 μL of naïve mouse blood or ear homogenates. The blood or ear samples were transferred into polypropylene Eppendorf tubes. […] 20-40 μL of the supernatant was analysed by LCMS/MS, using the same instrument, column, Mobile phase A, Mobile phase B, gradient and other parameters as outlined above for the tumour sample processing.

FKBP12 enzyme = FKBP12 enzyme (Homo sapiens, UniProt P62942); assay: TR-FRET assay, competition for tacrolimus (FK506) binding to FKBP12; details: 8-point dilution 0.001 nM to 10 μM, 30 min room temperature
FKBP12 enzyme, sequence (P62942 whole entry, species assumed): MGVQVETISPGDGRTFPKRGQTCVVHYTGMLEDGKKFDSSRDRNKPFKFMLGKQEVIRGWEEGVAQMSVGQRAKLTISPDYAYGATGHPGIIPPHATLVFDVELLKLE
Experimental: The FKBP12 enzyme used in the assay is tagged with a polyhistidine sequence. An anti-6xHis antibody, labelled with a fluorescent donor, F(d), binds the tagged enzyme. The enzyme ligand, FK506 is tagged with a fluorescent acceptor, F(a) and binds the enzyme. […] In the presence of a test inhibitor which competes for FK506, the complex is disrupt& and is no longer in close proximity, resulting in emission at wavelength A due to the F(d). […] The inhibitors were added to the master mix in the assay plate containing the enzyme/antibody/ligand complex, with a final detergent concentration of 0.005%. The reaction was incubated for 30 min at room temperature and then read on a SpectraMax M5 (Molecular Devices) at wavelengths A (615 nm) and B (665 nm). The ratio between light emission (wavelength B/A) is calculated and the blank subtracted values were plotted against the inhibitor concentration in Logio molar and fitted using one site Ki non-linear regression to determine the Kd of the bound test inhibitor.

skin tumours = details: 104 weeks, doses up to 260× of the recommended human dose (Protopic prescribing information); cited from earlier work
[3] = system: chemically (TPA+DMBA) induced tumour formation; details: topical application, mouse model (Jiang et al. 1993); cited from earlier work

## CC[C@@H]1/C=C(\C)[C@@H](O)[C@H](C)C[C@H](OC)[C@H]2O[C@@](O)(C(=O)C(=O)N3CCCC[C@H]3C(=O)O[C@H](/C(C)=C/[C@@H]3CC[C@@H](O)[C@H](OC)C3)[C@H](C)[C@@H](O)CC1=O)[C@H](C)C[C@@H]2OC [Compound 1, 17-Ethyl-1,14,20-trihydroxy-12-[2′-(4″-hydroxy-3″-methoxycyclohexyl)-1′-methylvinyl]-23,25-dimethoxy-13,19,21,27-tetramethyl-11,28-dioxa-4-azatricyclo-[22.3.1.0^4,9]octacos-18-ene-2,3,10,16-tetraone]
HPV38-E6/E7 SCC cells
  percentage of CD69+ (activated) CD8 T cells isolated from the tumour: significantly increased
  percentage of IFN gamma+ CD8 T cells isolated from the tumour: significantly increased
  percentage of TNF alpha+ CD8 T cells isolated from the tumour: significantly increased
  tacrolimus dependent-tumour growth compared to the vehicle control: significantly reduced
  tacrolimus dependent-tumour growth compared to the vehicle control, without CD8 depletion: significantly reduced
  tumour regression after CD8 depletion: no longer able cause tumour regression
[1]; BALBc mice, BID IT 40 μL of 2 mg/mL, after 10 days treatment, tacrolimus 150 ppm diet
  tacrolimus dependent-tumour growth compared to the vehicle control: significantly reduced
[1]; after 13 days treatment
  percentage of TNF alpha+ CD8 T cells isolated from the tumour: significantly increased
[1]; after 13 days treatment, ex vivo stimulation with CD3/CD28
  percentage of IFN gamma+ CD8 T cells isolated from the tumour: significantly increased
[2]; 1 h
  Concentration in blood: BLQ
[2]; 6 h
  Concentration in blood: BLQ
[2]; 24 h
  Concentration in blood: BLQ
FKBP12 enzyme
  Kd: 2.8 nM

## C=CC[C@@H]1/C=C(\C)C[C@H](C)C[C@H](OC)[C@H]2O[C@@](O)(C(=O)C(=O)N3CCCC[C@H]3C(=O)O[C@H](/C(C)=C/[C@@H]3CC[C@@H](O)[C@H](OC)C3)[C@H](C)[C@@H](O)CC1=O)[C@H](C)C[C@@H]2OC [tacrolimus, reference compound]
Skin tumours
  association of skin tumours with daily topical doses: no association
[3]
  reduction of chemically (TPA+DMBA) induced tumour formation: 80%
